The data set deals with rat. The format is in vivo. The note with it: intravenous administration. As for the experimental part: It has been confirmed that the compounds used in the present invention have low toxicity and are sufficiently safe for use as pharmaceutical preparations. For example, the maximal tolerated dose of the compound A (lysine salt of (5Z,9β,11α,13E)-17,17-propano-11,16-dihydroxy-9-chloro-20-norprosta-5,13-dienoic acid) in the compound represented by formula (I) used in the present invention was 30 mg/kg weight or more for rat intravenous administration.

Consider `CCC1(C(O)CC=CC2C(O)CC(Cl)C2CC=CCCCC(=O)O)CCC1.NCCCCC(N)C(=O)O` (stereo not drawn) [Compound A, (5Z,9β,11α,13E)-17,17-propano-11,16-dihydroxy-9-chloro-20-norprosta-5,13-dienoic acid lysine salt], for which the maximal tolerated dose is no less than 30 mg/kg weight.
